What was measured:
[1] = tested on: T cells; assay: Inhibition of antigen induced T cell proliferation ([^3H]thymidine incorporation); assay type: cell-based; details: Antigen (crude Candida albicans extract, 10 μg/ml), 144 hours culture
Procedure: The chemical compounds used according to the invention prevent immunological proliferation by selective inhibition of the Ca^2+-activated K-channels in T- and B-lymphocytes. This effect may be verified using various proliferation assays. In this experiment the proliferative assay described by Ødum et al. [Ødum N, Kanner S B, Ledbetter J A, & Svejgaard A; J. Immunol. 1993 150 (12) 5289-5298] was used.
Assays were performed in culture medium (RPMI 1640; available from Gibco, Grand island, N.Y.) supplemented with 10% pooled human serum, 2 mM L-glutamine, 100 μg/ml penicillin, and 100 μg/ml streptomycin (available from Novo Nordisk, Copenhagen, Denmark) in 96-well round bottom tissue culture plates (available from Nunc, Roskilde, Denmark) with a final volume of 200 μl.
T cells were preincubated for three hours with the test compounds before addition of antigen (crude Candida albicans extract, 10 μg/ml). T cells were cultured at 5×10^4 cells/well for 144 hours. Twelve hours before harvest, [^3H]thymidine ([…]) was added. The cells were harvested onto glass fibre filters, and the [^3H]thymidine incorporation was measured in a scintillation counter. The results were expressed as mean counts per minute (cpm) from triplicate cultures.

[2] = biological target: human placenta Ca^2+-activated, intermediate conductance potassium channel protein (IKCa) (Homo sapiens, UniProt O15554); assay: Whole cell patch clamp on HEK293 or CHO cells transfected with the human IKCa channel; assay type: cell-based; details: 1 μM Clotrimazole added to the bath solution; reversed by washout
Procedure: HEK293 or CHO tissue culture cells were grown in DMEM (Dulbecco's Modified Eagle Medium) supplemented with 10% FCS (foetal calf serum) at 37° C. in 5% CO2. One day prior to transfection, 10^6 cells were plated in a cell culture T25 flask. The following day, cells were transfected using lipofection (20 μL Lipofectamin™, Life Technologies, with 2.5 μg of the plasmid pNS2Z_hIK2 in a total volume of 540 μL). The lipofection mixture was overlaid on the cells and incubated at 37° C. for 5 hours.
The cells were then rinsed with regular media and plated to a 30 mm culture dish. 18-48 hours after, transfected cells were assayed for the presence of Ca^2+-activated, intermediate conductance potassium channel protein by electrophysiological measurements.
Whole cell currents were recorded using a pipette solution of 144 mM KCl, 1 mM EGTA, 9 mM NTA, 1.085 mM CaCl2, 5.54 mM MgCl2, and 10 mM HEPES (pH 7.2) and a bath solution of 144 mM KCl, 2 mM CaCl2, 1 mM MgCl2, 0.01% (w/v) BSA and 10 mM HEPES (pH=7.4). Current traces were recorded from cells containing human Ca^2+-activated, intermediate conductance potassium channels after application of voltage ramps (−100 mV to +100 mV, 200 ms duration).

Row | Compound | T Cell Proliferation ([1]; test compound 1 μM) | T Cell Proliferation ([1]; test compound 5 μM) | T Cell Proliferation ([1]; test compound 10 μM) | Effect on the Ca^2+-activated potassium current [2]
1 | CCOC(=O)C1=C(C)NC(C)=C(C(=O)OC)C1c1cccc([N+](=O)[O-])c1 (stereo not shown) [Nitrendipine, 1,4-dihydro-2,6-dimethyl-4-(3-nitrophenyl)pyridine-3,5-dicarboxylic acid ethyl methyl ester] | 5.6 cpm × 10^−3 | 3.8 cpm × 10^−3 | 4.0 cpm × 10^−3 | –
2 | Clc1ccccc1C(c1ccccc1)(c1ccccc1)n1ccnc1 [Clotrimazole, 1-[(2-chlorophenyl)-diphenyl-methyl]-1H-imidazole] | 5.8 cpm × 10^−3 | 4.2 cpm × 10^−3 | 1.8 cpm × 10^−3 | inhibition of the Ca^2+-activated potassium current

Reference: patent publication US6545028B2, “Chemical compounds having ion channel blocking activity for the treatment of immune dysfunction” (NeuroSearch A/S, priority 1997, dated 2003)
